Assay results taken from patent US9980986B2, “Methods of producing pancreatic hormones” (ViaCyte, Inc., priority 2006, dated 2018).

Experiments:
Format in all cases: cell-based
[1] = system: Human embryonic stem cells; assay: hESC 19-day 5-step differentiation with varying DAPT concentrations, real-time quantitative PCR; settings: DAPT 0, 1, 3 or 10 μM for 2 days in step 4
Procedure: Human embryonic stem cells were differentiated for 19 days via a 5-step protocol to achieve islet hormone-expressing cells. The first step comprised 5 days differentiation in activin A (100 ng/mL) to robustly produce DE (D'Amour, K., et al., Nature Biotechnology 23, 1534-1541, (2005)). Step 2 comprised 2 days differentiation in RPMI with 2% FBS containing FGF10 (50 ng/mL) and KAAD-cyclopamine (0.5 μM). Step 3 comprised 4 days differentiation in CMRL with B27 supplement (1:100) containing FGF10 (50 ng/mL), KAAD-cyclopamine (0.2 μM), and retinoic acid (1 μM). The fourth step comprised 2 days treatment with CMRL with B27 supplement (1:100) containing exendin 4 (40 ng/mL) and with varying concentrations of the gamma secretase inhibitor DAPT (0 μM, 1 μM, 3 μM, or 10 μM). The last step comprised 6 days differentiation in DMEM with B27 supplement (1:100) containing nicotinamide (10 mM), exendin 4 (40 ng/mL), and insulin-like growth factor (IGF)-1 (50 ng/mL). Duplicate samples were taken from each plate and gene expression was analyzed by real-time quantitative PCR.

[2] = system: Human embryonic stem cells; assay: hESC 16-day 4-step or 5-step differentiation time course, real-time quantitative PCR
Procedure: Human embryonic stem cells were differentiated for 16 days via either a 4-step or 5-step protocol to achieve islet hormone-expressing cells. The first step comprised 3 days differentiation in activin A (100 ng/mL) to robustly produce DE (D'Amour, K., et al., Nature Biotechnology 23, 1534-1541, (2005)). Step 2 comprised 3 days differentiation in RPMI with 2% FBS containing FGF10 (50 ng/mL) and KAAD-cyclopamine (0.2 μM). In the 4-step protocol, step 3 comprised 4 days differentiation in CMRL with B27 supplement (1:100) containing FGF10 (50 ng/mL), KAAD-cyclopamine (0.2 μM), retinoic acid (2 μM), and DAPT (1 μM). In the 5-step protocol, this 4 day period was broken into two separate treatments in the same base media. For 2 days the media contained FGF10 (50 ng/mL), KAAD-cyclopamine (0.2 μM), and retinoic acid (2 μM). During the subsequent 2 days, the FGF10 was removed and the gamma-secretase inhibitor DAPT (1 μM) was added. The last step of both protocols comprised 6 days differentiation in DMEM with B27 supplement (1:100) containing nicotinamide (10 mM), exendin 4 (40 ng/mL), hepatocyte growth factor (HGF 25 ng/mL), and insulin-like growth factor (IGF)-1 (50 ng/mL). Duplicate samples were taken from each plate at multiple time points and gene expression was analyzed by real-time quantitative PCR.

[3] = system: Human embryonic stem cell lines; assay: hESC differentiation by 5-step 17-day protocol (treatments i-iv), gene expression by real-time quantitative PCR; settings: KAAD-cyclopamine maintained in the presence of retinoic acid during step 3
Procedure: Human embryonic stem cell lines were differentiated for 17 days via a 5-step protocol to produce pancreatic islet hormone-expressing cells. […] Step 2 comprised 3 days differentiation in RPMI with 2% FBS containing one of the following: (a) 100 ng/mL activin A (treatment i), (b) no exogenous growth factors (treatment ii), or (c) 50 ng/mL FGF10 and 0.5 μM KAAD-cyclopamine (treatments iii and iv). Step 3 comprised 3 days differentiation in CMRL with B27 supplement (1:100) containing either (a) 2 μM retinoic acid (treatments i-iii) or (b) 2 μM retinoic acid and 0.5 μM KAAD-cyclopamine (treatment iv). Steps 4 and 5 were the same for all conditions (treatments i-iv). Step 4 comprised 2 days differentiation in CMRL with B27 supplement (1:100) containing 1 μM DAPT and 40 ng/mL exendin 4. Step 5 comprised 5 days differentiation in CMRL with B27 supplement (1:100) containing 40 ng/mL exendin 4. Duplicate samples were taken from each plate at multiple time points and gene expression was analyzed by real-time quantitative PCR.

[4] = system: Human embryonic stem cells; assay: hESC 17-day 4-step differentiation with or without retinoic acid, real-time quantitative PCR; settings: retinoic acid about 0.1-5 μM for at least about 1 day
Procedure: Human embryonic stem cells were differentiated for 17 days via a 4-step protocol to achieve islet hormone-expressing cells. The first step comprised 5 days differentiation in activin A (100 ng/mL) to robustly produce DE (D'Amour, K., et al., Nature Biotechnology 23, 1534-1541, (2005)). Step 2 comprised 2 days differentiation in RPMI with 2% FBS containing FGF10 (50 ng/mL) and KAAD-cyclopamine (1 μM) followed by 2 more days that also contained DAPT (1 μM). Step 3 comprised 5 days differentiation in CMRL with B27 supplement (1:100) containing FGF10 (50 ng/mL), KAAD-cyclopamine (1 μM), DAPT (1 μM) and either with or without the addition of retinoic acid (1 μM). The fourth step comprised 4 days differentiation in CMRL with B27 supplement (1:100) containing nicotinamide (10 mM), exendin 4 (50 ng/mL), hepatocyte growth factor (HGF 25 ng/mL), and insulin-like growth factor (IGF)-1 (50 ng/mL). Duplicate samples were taken from each plate at multiple time points and gene expression was analyzed by real-time quantitative PCR.

Human ESCs [5] = assay: hESC differentiation to insulin-expressing cells using noggin without exogenous retinoids, real-time PCR
Procedure: Human ESCs were differentiated to definitive endoderm cells via treatment with activin A (100 ng/ml) and Wnt3a (25 ng/ml) in RPMI+0% FBS for the first day and then for 2 more days with activin A (100 ng/ml) alone in RPMI+0.2% v/v FBS. Definitive endoderm was differentiated to foregut endoderm by treatment with KGF (50 ng/ml) and KAAD-cyclopamine (0.25 μM) for 3 days in RPMI+2% v/v FBS. Differentiation then proceeded in DMEM+1% v/v B27 supplement containing KGF (50 ng/ml) and KAAD-cyclopamine (0.25 μM) for one day followed by 5 additional days of the same with or without the addition of noggin (100 ng/ml). The B27 supplement used was either with (B27+) or without (B27-) vitamin A. On days 13, 14 and 15 of differentiation, the KGF was removed but the KAAD-cyclopamine (0.25 μM) and noggin (when used) remained in the culture medium. The differentiation medium for days 16-19 consisted of CMRL+1% v/v B27 (with or without vitamin A as in previous conditions) with no additional factors. Cultures were sampled in duplicate on days 3, 6, 9, 12, 15 and 19 of differentiation and analyzed for expression of pancreatic markers using real-time PCR.

[6] = system: Human embryonic stem cells; assay: PDX1 protein and mRNA expression under different media conditions; settings: insulin about 0.2-20 μg/ml or insulin-like growth factor about 10-500 ng/ml
Procedure: Human embryonic stem cells were differentiated in RPMI medium containing activin A (100 ng/ml) for 5 days. The FBS concentrations changed from 0% for the first 24 hours followed by 0.2% for the next 24 hrs and then to 2% for the remaining 3 days. During the next 4 days, the plates were subjected to different media conditions. They were either incubated in i) RPMI with 2% FBS and activin A (100 ng/ml), ii) RPMI with 2% FBS, activin A (25 ng/ml) and retinoic acid, iii) CMRL with 0.2% FBS and B27 supplement (1:100), activin A (25 ng/ml) and retinoic acid, and iv) CMRL with 0.2% FBS and B27 supplement (1:100), activin A (25 ng/ml), retinoic acid and exendin (40 ng/ml). The concentration of retinoic acid changed from 2 μM for 48 hours followed by 1 μM for 24 hours to 0.2 μM for the last 24 hours. The cells were harvested for protein and mRNA analyses on days 7, 8 and 9.
Without sufficient insulin signaling, PDX1 mRNA was expressed without significant translation into PDX1 protein (FIGS. 4A-4B). The base medium can be RPMI, CMRL, OptiMEM or DMEM with or without 2% FBS. If the base medium is supplemented with sufficient insulin/IGF and FGF10, PDX1 protein will be expressed.

[7] = system: Human embryonic stem cells; assay: hESC 21-day 4-step differentiation with three step-1 conditions, real-time quantitative PCR; settings: activin A 100 ng/ml, or follistatin 50 ng/ml and noggin 100 ng/ml
Procedure: Human embryonic stem cells were differentiated for 21 days via a 4-step protocol to achieve islet hormone-expressing cells. Three different conditions were used for the first step after which all plates received the identical treatment. The first step comprised 5 days differentiation under one of the following conditions: i) activin A (100 ng/ml) to robustly produce DE (D'Amour, K., et al., Nature Biotechnology 23, 1534-1541, (2005)), ii) 2% FBS with no exogenous growth factors, thereby producing mesoderm and extraembryonic endoderm, or iii) follistatin (50 ng/ml) and noggin (100 ng/ml), thereby producing neural ectoderm. Step 2 comprised 3 days differentiation in RPMI with 2% FBS containing FGF10 (50 ng/mL) and KAAD-cyclopamine (1 μM). Step 3 comprised 5 days differentiation in CMRL with B27 supplement (1:100) containing FGF10 (50 ng/mL), KAAD-cyclopamine (1 μM), retinoic acid (2 μM), and DAPT (1 μM). The fourth step consisted of 8 days differentiation in DMEM with B27 supplement (1:100) containing nicotinamide (10 mM), exendin 4 (40 ng/mL), hepatocyte growth factor (HGF-25 ng/mL), and insulin-like growth factor (IGF)-1 (50 ng/mL). Duplicate samples were taken from each plate at multiple time points and gene expression was analyzed by real-time quantitative PCR.

Human ESCs [8] = assay: hESC differentiation using combination of noggin and retinoic acid, QPCR
Procedure: Human ESCs were differentiated to definitive endoderm via treatment with activin A (100 ng/ml) and Wnt3a (25 ng/ml) in RPMI+0% FBS for the first day and then for 2 more days with activin A (100 ng/ml) alone in RPMI+0.2% v/v FBS. Definitive endoderm was differentiated to foregut endoderm by treatment with KGF (50 ng/ml) and KAAD-cyclopamine (0.25 μM) for 3 days in RPMI+2% v/v FBS. Differentiation then proceeded for 3 days in DMEM+1% v/v B27 supplement containing KAAD-cyclopamine (0.25 μM) and all-trans retinoic acid (0.1 μM or 2 μM) with or without the addition of noggin (0, 30 or 100 ng/ml). This was followed by a 2 day treatment period with the gamma-secretase inhibitor DAPT (1 μM) provided in DMEM+1% v/v B27 and subsequently the cells were cultured in CMRL+1% v/v B27 with no additional growth factors.

[9] = noggin 100 ng/ml, B27 with or without vitamin A

Molecule: C[C@H](NC(=O)Cc1cc(F)cc(F)c1)C(=O)N[C@H](C(=O)OC(C)(C)C)c1ccccc1 [DAPT, N—[N-(3,5-difluorophenacetyl)-L-alanyl]-S-phenylglycine t-butyl ester]
- Effect on expression of pancreatic hormones and transcription factors after 19 days [1]: very little to no insulin, glucagon, somatostatin or principal pancreatic transcription factors were produced in the absence of DAPT
- Effect on NGN3 and PAX4 expression ([2]; 2-4 day application of DAPT in terminal days of RA addition or after RA withdrawal): transient induction of NGN3 and PAX4 expression

Molecule: CC1=C2C[C@H]3[C@@H](CC=C4CC(=O)CC[C@@]43C)[C@@H]2CC[C@]12O[C@@H]1C[C@H](C)CN(CCNC(=O)CCCCCNC(=O)CCc3ccccc3)[C@H]1[C@H]2C [KAAD-cyclopamine]
- Increase of performance of endocrine differentiation relative to treatment iii [3]: 2 fold

Molecule: CC1=C(/C=C/C(C)=C/C=C/C(C)=C/C(=O)O)C(C)(C)CCC1 [retinoic acid, all-trans retinoic acid]
- Effect on HNF6 and PDX1 expression ([2]; retinoic acid 2 μM in step 3): robustly increased expression of HNF6 and PDX1
- Effect on insulin expression [4]: insulin was not expressed unless retinoic acid was applied

Molecule: CC1=C(/C=C/C(C)=C/C=C/C(C)=C/CO)C(C)(C)CCC1 [vitamin A, retinol, reference compound]
- Magnitude of pancreatic hormone expression (Human ESCs [5]; B27 supplement with versus without vitamin A): enhanced by the presence of vitamin A

Molecule: insulin-like growth factor
- Effect on PDX1 protein expression [6]: promotes the expression of PDX1 protein

Molecule: insulin: insulin as medium supplement
- Effect on PDX1 protein expression [6]: promotes the expression of PDX1 protein

B1: activin A: growth factor of the TGFβ superfamily (protein, UniProt P08476 311-426, looked up)
Inhibin beta A chain: GLECDGKVNICCKKQFFVSFKDIGWNDWIIAPSGYHANYCEGECPSHIAGTSGSSLSFHSTVINHYRMRGHSPFANLKSCCVPTKLRPMSMLYYDDGQNIIKKDIQNMIVEECGCS
- Lineage marker expression at 5 days of differentiation (step 1) [7]: robust production of definitive endoderm

B2: noggin: recombinant human Noggin (protein, UniProt Q13253 28-232, looked up)
Noggin: QHYLHIRPAPSDNLPLVDLIEHPDPIFDPKEKDLNETLLRSLLGGHYDPGFMATSPPEDRPGGGGGAAGGAEDLAELDQLLRQRPSGAMPSEIKGLEFSEGLAQGKKQRLSKKLRRKLQMWLWSQTFCPVLYAWNDLGSRFWPRYVKVGSCFSKRSCSVPEGMVCKPSKSVHLTVLRWRCQRRGGQRCGWIPIQYPIISECKCSC
- Expression levels of PDX1 at days 9 or 11 (Human ESCs [8]; noggin 0, 30 or 100 ng/ml with retinoic acid 0.1 μM or 2 μM): very little effect
- Expression of NGN3 at day 9 (Human ESCs [8]; noggin added to low dose RA (0.1 μM)): dramatically enhanced
- Expression of pancreatic hormones INS, GCG, SST and GHRL (Human ESCs [5]; noggin 100 ng/ml): also dependent on the presence of noggin
- Induction of PDX1 gene expression (Human ESCs [5]; [9]): not dependent on either noggin treatment
- NGN3 expression induced at day 12 (pancreatic endocrine differentiation) (Human ESCs [5]; [9]): highly dependent on the presence of noggin
